Data taken from article PMC12349723, “Computationally accelerated identification of P-glycoprotein inhibitors” (PLOS One, 2025).
“And” between values parts separate entries of the source, which are not always exact repeats. Equal values may be shown once. Read-outs that look alike come from different tables or passages of the source.

How the values were obtained:
[1] = SWISS-ADME computational analysis of chemical properties; settings: predicted aqueous solubility compared to that observed in the laboratory
Excerpt: Identifying P-gp inhibitors that are not transport substrates remains inherently challenging. To that end, computational tools such as the SWISS-ADME server attempt to use a molecule’s unique chemical and structural characteristics to predict whether it is likely to be a P-gp transport substrate. Our LC-MS/MS assays allowed us to retroactively test the validity of predictions from SWISS-ADME. […] Alternative identifiers for the molecules identified in this study are shown in S7 Table.
S1 Table. Known P-gp Inhibitors and Predicted Chemical Properties. A non-exhaustive list of known P-gp inhibitors and their selected chemical properties ^[64, 65]. Clinical trial outcomes were adapted from ^[10, 11]. Compounds were evaluated using the SWISS-ADME server ^[54]. […] “Predicted P-gp Substrate” - predicted by SWISS-ADME to be a transport substrate of P-gp. “Known P-gp Substrate” – In addition to being P-gp inhibitors, these molecules are: known transport substrates of P-gp, known non-transport substrates of P-gp, unknown whether it is a transport substrate of P-gp ^[66-68]. If the molecule is designated in a specific generation of P-gp inhibitors - First Generation P-gp inhibitors, Second generation P-gp inhibitors, Third generation P-gp inhibitors.

[2] = biological target: T1, P-gp (Homo sapiens, UniProt P08183); experiment: Top Hit classification from combined in vitro criteria; settings: reverse MDR, do not increase PTX toxicity in chemo-sensitive cancer cells, non-toxic to noncancerous cells, not P-gp substrates
T1 construct: The MDR, P-gp overexpressing DU145-TXR cells were maintained under positive selection pressure; endogenous in cells; host or cells: DU145-TXR (paclitaxel-resistant sub-line of DU145 human prostate cancer cells)

[3] = test system: DU145 cells; experiment: MTT viability assay, non-P-gp overexpressing DU145 parental line, with or without PTX; type: cell-based, human; settings: for viability at 15 µM: Homo sapiens, DU-145, 48 h; for Sensitization of DU145 cells to PTX: 15 µM compound + PTX vs PTX alone
Procedure: The chemotherapeutic sensitive DU145 human prostate cancer cells and the multidrug resistant sub-line, DU145-TXR, were generous gifts from Dr. Evan Keller (University of Michigan, Ann Arbor, MI). The MDR, P-gp overexpressing DU145-TXR cells were maintained under positive selection pressure by supplementing complete medium with 10 nM paclitaxel (Acros Organics, NJ). […] The MDR, P-gp overexpressing A2780-ADR cell line was maintained under positive selection pressure by supplementing complete medium with 100 nM doxorubicin (Fisher Scientific, NJ). The non-cancerous HFL1 (human lung fibroblast) cell line cell line was a generous gift from Dr. Robert Harrod (Southern Methodist University, Dallas, TX) and was maintained in complete F12K media consisting of F12K with 10% fetal bovine serum, 100 U/mL penicillin, and 100 µg/mL streptomycin (Gibco). Flasks and 96 well plates that were used with the non-cancerous line HFL1 were pre-treated with 0.1 mg/ml Collagen Type 1 (Gibco) and rinsed with PBS (Fisher).
Culture of the DU145, DU145-TXR, and HFL1 cell lines was performed as described in [8]. Culture of the A2780 and A2780-ADR cell lines was performed as described in [9]. MTT assays were performed as described in [8] with minor modifications. […] Data represent the mean of two separate experiments, with n = 3 samples per experiment (n = 6 total) (S4 Table).
MTT assays measure the reduction of yellow, water soluble 3-(4,5-dimethylthiazol-2-yl)-2,5-diphenyltetrazolium bromide (MTT) to blue, insoluble formazan crystals by cellular reductase processes in living cells. Cells were trypsinized from monolayers and seeded in complete medium in 96 well plates. Cancerous cell lines (DU145, DU145-TXR, A2780, A2780-ADR) were seeded at 3,000 cells per well in complete RPMI medium. The non-cancerous HFL1 line was seeded at 4,000 cells per well in complete F12K medium, in collagen-treated plates (Collagen Type 1, Gibco). Cells were incubated with experimental compounds for 48 hours at 37 °C and 5% CO2 in a humidified incubator. At 48 hours, MTT was added (20 µL/well of 5 mg/mL MTT in PBS) to each well. After incubation for 4 hours, the media was removed, and the formazan crystals were dissolved in 100 µL DMSO per well. Plates containing the semi-adherent A2780 or A2780-ADR lines were spun at 1400 rpm for 3 minutes prior to aspiration of media, and the addition of DMSO. Plates were shaken for 10 minutes at 500 rpm on an Orbital shaker (LabDoctor from MidSci, St Louis, MO). The absorbance was measured at 570 nm using a Bio-Tek Cytation 5 (Bio-Tek, Winooski, VT). The measured absorbance value was correlated with the number of metabolically active cells in that well, corrected for absorbance of media. The percent of cell viability (termed ‘survival’ here) was calculated as a percentage of survival of the control condition, which refers to vehicle-treated (DMSO as vehicle) cells, or vehicle-and-chemotherapeutic-treated cells, if testing a compound’s ability to re-sensitize cells to a chemotherapeutic. Percent survival was calculated using the following equation:
% Survival=100 × absorbance of experimental cells/mean absorbance of control treated cells
For DU145-TXR, DU145, HFL1 and A2780 cells – data are the mean ± one standard deviation, 8 samples per compound, from at least two independent trials per compound. […] For A2780-ADR cells, data are the mean ± one standard deviation with 12 samples per compound, from at least two independent trials per compound.
67 compounds were chosen from computational screens for testing in vitro. A) DU145-TXR cells were exposed to 15 µM experimental compound with or without 500 nM of the P-gp substrate and chemotherapeutic paclitaxel (PTX).

[4] = DU145 cells, 48 h, mean of 8 samples
[5] = DU145 cells, 48 h, mean of 8 samples, read-out: % Survival, Mean, 15 µM Compound alone
[6] = DU145 cells, 48 h, single samples, 2 trials x 4 samples
[7] = DU145 cells, 48 h, single samples, 2 trials x 4 samples, read-out: % Survival, 15 µM Compound alone (individual samples)

T1 sequence (P08183 whole entry): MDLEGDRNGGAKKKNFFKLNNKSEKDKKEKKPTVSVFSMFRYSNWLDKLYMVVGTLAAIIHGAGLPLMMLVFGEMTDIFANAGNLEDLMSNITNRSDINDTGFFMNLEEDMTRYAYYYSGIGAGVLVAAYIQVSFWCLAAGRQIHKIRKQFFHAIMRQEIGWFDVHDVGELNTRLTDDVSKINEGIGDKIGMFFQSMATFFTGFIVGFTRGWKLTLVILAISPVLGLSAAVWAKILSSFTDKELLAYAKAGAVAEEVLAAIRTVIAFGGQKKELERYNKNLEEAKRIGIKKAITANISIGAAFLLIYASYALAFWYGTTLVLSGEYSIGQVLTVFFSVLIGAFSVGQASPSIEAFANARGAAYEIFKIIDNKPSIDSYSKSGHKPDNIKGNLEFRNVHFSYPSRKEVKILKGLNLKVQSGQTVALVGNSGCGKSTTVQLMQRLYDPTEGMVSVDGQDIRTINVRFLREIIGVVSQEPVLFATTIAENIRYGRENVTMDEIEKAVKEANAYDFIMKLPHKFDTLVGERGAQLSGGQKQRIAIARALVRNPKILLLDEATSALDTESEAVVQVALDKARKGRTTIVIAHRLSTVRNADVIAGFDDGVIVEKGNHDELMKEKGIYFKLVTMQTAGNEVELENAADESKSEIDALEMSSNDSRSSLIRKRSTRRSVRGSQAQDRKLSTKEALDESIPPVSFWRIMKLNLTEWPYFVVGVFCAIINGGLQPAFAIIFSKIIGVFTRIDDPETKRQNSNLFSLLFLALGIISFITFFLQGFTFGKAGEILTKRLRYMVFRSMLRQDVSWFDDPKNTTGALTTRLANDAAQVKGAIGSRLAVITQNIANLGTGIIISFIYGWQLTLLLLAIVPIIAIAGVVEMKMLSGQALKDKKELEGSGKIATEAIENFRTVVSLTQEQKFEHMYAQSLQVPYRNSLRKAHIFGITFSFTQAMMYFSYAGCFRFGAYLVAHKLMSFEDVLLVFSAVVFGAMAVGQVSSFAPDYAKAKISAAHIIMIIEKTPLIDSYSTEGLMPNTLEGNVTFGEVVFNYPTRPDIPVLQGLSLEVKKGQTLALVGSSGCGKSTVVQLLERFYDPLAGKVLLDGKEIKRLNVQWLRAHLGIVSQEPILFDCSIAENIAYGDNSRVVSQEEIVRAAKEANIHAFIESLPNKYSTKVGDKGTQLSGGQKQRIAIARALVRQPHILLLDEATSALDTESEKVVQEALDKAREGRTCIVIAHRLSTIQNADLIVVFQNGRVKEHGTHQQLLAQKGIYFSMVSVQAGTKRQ

| SMILES | Correct Water Solubility Prediction? [1] | Top Hit [2] | % Survival, Mean, 15 µM compound + 500 nM PTX [3, 4] [%] | viability at 15 µM [3, 5] [%] | Sensitization of DU145 cells to PTX [3] | % Survival, 15 µM Compound alone (individual samples) [3, 6] | % Survival, 15 µM compound + 500 nM PTX (individual samples) [3, 6] | viability at 15 µM [3, 7] [%] | % Survival, Mean, 15 µM Compound alone [3, 4] [%] |
| --- | --- | --- | --- | --- | --- | --- | --- | --- | --- |
| Cn1cnnc1SCc1c(C(=O)O)nnn1-c1nonc1N [Compound 59, Cn1cnnc1SCc1c(nnn1-c1nonc1N)C(O)=O] | Yes | No | – | – | – | – | – | – | – |
| Nc1nonc1-n1nnc(C(=O)N/N=C/c2c3ccccc3cc3ccccc23)c1COc1ccc(F)cc1 [Compound 60, Nc1nonc1-n1nnc(C(=O)N\N=C\c2c3ccccc3cc3ccccc23)c1COc1ccc(F)cc1] | No | No | – | – | – | – | – | – | – |
| CCN1CCN(Cc2c(C(=O)N/N=C3/C(=O)N(C)c4ccccc43)nnn2-c2nonc2N)CC1 [Compound 61, CCN1CCN(Cc2c(nnn2-c2nonc2N)C(=O)N\N=C2\C(=O)N(C)c3ccccc23)CC1] | No | No | 14.3 | 55.6 | – | – | – | – | – |
| O=C(c1cc2ccccc2[nH]1)N1CCN(S(=O)(=O)c2cccc3nonc23)CC1 [Compound 66, O=C(N1CCN(CC1)S(=O)(=O)c1cccc2nonc12)c1cc2ccccc2[nH]1] | Yes | No | – | – | – | – | – | – | – |
| O=C(c1nc(-c2ccc3cc[nH]c3c2)no1)N1CCN(c2nsc3ccccc23)CC1 [Compound 70, O=C(N1CCN(CC1)c1nsc2ccccc12)c1nc(no1)-c1ccc2cc[nH]c2c1] | Yes | Yes | 30.5 | 84.7 | insignificantly sensitize DU145 cells to PTX | 88% | 32% and 30% | – | – |
| COc1ccc(OC)c(NC(=O)c2nnn(-c3ccc4noc(-c5ccccc5)c4c3)c2C)c1 [Compound 71, COc1ccc(OC)c(NC(=O)c2nnn(c2C)-c2ccc3noc(-c4ccccc4)c3c2)c1] | Yes | No | – | – | – | – | – | – | – |
| Cc1onc(-c2ccccc2)c1-c1nnc(Cn2cnc3c(oc4ccccc43)c2=O)o1 [Compound 78, Cc1onc(c1-c1nnc(Cn2cnc3c4ccccc4oc3c2=O)o1)-c1ccccc1] | Yes | Yes | 33.6 | 89.2 | insignificantly sensitize DU145 cells to PTX | 94% | 31% | – | – |
| NS(=O)(=O)c1cccc(NC(=O)CSc2nnnn2C2CC2)c1 [Compound 89, NS(=O)(=O)c1cccc(NC(=O)CSc2nnnn2C2CC2)c1] | Yes | No | – | – | – | – | – | – | – |
| O=S(=O)(CCSc1nnc(-c2ccccc2)c2ccccc12)c1ccccc1 [Compound 96, O=S(=O)(CCSc1nnc(-c2ccccc2)c2ccccc12)c1ccccc1] | No | Yes | 28.8 | 77 | insignificantly sensitize DU145 cells to PTX | 65% | 26% | – | – |
| O=S(=O)(Cc1nc2ccccc2n1CC(O)c1ccc(Cl)cc1)c1ccccc1 (centres unmarked) [Compound 97, OC(Cn1c(CS(=O)(=O)c2ccccc2)nc2ccccc12)c1ccc(Cl)cc1] | Yes | Yes | 23.9 | 73.5 | insignificantly sensitize DU145 cells to PTX | 72% | – | – | – |
| COc1cccc(N2CCN(c3ccc4nnc(CCC(=O)Nc5ccc(F)c(F)c5)n4n3)CC2)c1 [Compound 101, COc1cccc(c1)N1CCN(CC1)c1ccc2nnc(CCC(=O)Nc3ccc(F)c(F)c3)n2n1] | Yes | Yes | 24.0 | 89.9 | insignificantly sensitize DU145 cells to PTX | 89% | – | 92 | – |
| Cc1ccc(-c2noc(-c3cn(Cc4ccc(NS(=O)(=O)c5ccccc5F)cc4)cn3)n2)cc1 [Compound 103, Cc1ccc(cc1)-c1noc(n1)-c1cn(Cc2ccc(NS(=O)(=O)c3ccccc3F)cc2)cn1] | No | No | 29.4 | 77.7 | insignificantly sensitize DU145 cells to PTX | – | – | – | – |
| Cc1onc(-c2ccccc2)c1-c1nnc(Cn2cnc3ccccc3c2=O)o1 [Compound 111, Cc1onc(c1-c1nnc(Cn2cnc3ccccc3c2=O)o1)-c1ccccc1] | Yes | Yes | 19.3 | 73.5 | insignificantly sensitize DU145 cells to PTX | 72% | – | 80 | – |
| O=C(NCc1cccc(F)c1)c1nnn2c1Sc1c(C(=O)NCc3cccc(F)c3)nnn1CC2 [Compound 122, Fc1cccc(CNC(=O)c2nnn3CCn4nnc(C(=O)NCc5cccc(F)c5)c4Sc23)c1] | Yes | No | 19.4 | 60.9 | insignificantly sensitize DU145 cells to PTX | – | – | – | – |
| COc1ccc2c3c([nH]c2c1)[C@H](CC(C)C)N1C(=O)[C@H](CCC(=O)OC(C)(C)C)NC(=O)[C@@H]1C3 [Ko143, reference compound] | – | – | 20.1 | – | – | 89% and 88% and 53% and 50% and 46% and 42% and 86% and 91% | 12% and 13% and 16% and 22% and 23% and 24% and 25% | – | 68.1 |
| COc1cc2c(cc1OC)CN(CCc1ccc(NC(=O)c3cc(OC)c(OC)cc3NC(=O)c3cnc4ccccc4c3)cc1)CC2 [Tariquidar, reference compound] | – | – | 12.0 | 86.1 | – | – | – | – | – |
